Key:
[1] = Ascorbate depletion assay, 9,10-PQ-sponsored oxidation, recycling of DHA; conditions: 9,10-PQ model, 200 μM added at 60 minutes
Method: (§1) The kinetics of ascorbate oxidation, sponsored by both 1 μM 9,10-PQ and 2 μM copper sulphate (CuSO4), was examined using the ascorbate depletion assay (Kelly et al, Res. Rep. Health Eff. Inst., 163, 3 (2011). 9,10-PQ was employed so that the action of NBMI could be examined in isolation of its chelation properties.
(§2) All experiments were performed in triplicate in UV 96 well flat-bottomed plates (Greiner bio-one) at a final volume of 200 μL. Exposures were initiated by the addition of 20 μL of a concentrated stock of ascorbate (2 mM) into each well containing 160 μL of Chelex-100 resin treated water (containing 10% DMSO), plus either 10 μL of water, CuSO4 stock solution at 4 mM or 9,10-PQ stock solution at 2 mM, and 10 μL of NMBI (4 mM and […]).
(§3) All solutions were prepared in Chelex-100 resin treated water (containing 10% DMSO). This yielded final concentrations in the wells of […], 2 μM CuSO4, or 1 μM 9,10-PQ and between 10 and 200 μM of NBMI.
(§4) Immediately prior to the addition of the ascorbate to each assay well, the plate was pre-incubated for 10 minutes at 37° C. in a plate reader (Spectra Max 190). During the exposure, the plate was maintained at this temperature. After addition of ascorbate, the concentration remaining in each well was monitored every 2 minutes for a period of two hours by measuring the absorbance at 265 nm. The ascorbate concentration was determined with reference to a standard curve, with the rate of ascorbate oxidation determined by performing a linear regression through the initial part of a concentration verses time plot using Microcal Software Limited's OriginLab (version 5.0). This was performed for each of the triplicates and the rate of ascorbate depletion was finally expressed as mean mol s 1×10^−9 depletion of ascorbate±standard deviation.
(§5) For the experiments in which the impact of adding NBMI to the ascorbate was measured, CuSO4 and 9,10-PQ depletion assays were examined later in the time course. The plates were ran with 190 μL only for the first 55-60 minutes, after which they were removed from the plate reader and 10 μL of either the NMBI or the known reducing agent, DTT stock solution, or water was added to each well. The plate was then returned to the plate reader and the absorbance at 265 nm monitored for a further 60 minutes.
(§6) The immediate increase in the measured ascorbate concentrations was determined and is referred to as the ‘jump’, as a measure of immediate recycling capacity. The sustained ‘increase’ over the remaining 60 minutes of the incubation was also determined.

[2] = Ascorbate depletion assay, CuSO4-sponsored oxidation, recycling of DHA; conditions: CuSO4 model, 200 μM added at 60 minutes
Method: as §1, §2, §3, §4, §5, §6

[3] = tested on: IL-6 and IL-8 secretion in A549 cells; assay: Particle-induced secretion of pro-inflammatory cytokines (ELISA) in A549 cells; format: cell-based; conditions: pre-incubation 5 mM NAC (positive control); cell line not specified (A549 and BEAS-2B tested)
Method: Secretion of the pro-inflammatory cytokines interleukin (IL)-6, IL-8 (as well as GM-CSF and MCP-1) into cell media in response to particle exposure was measured in A549 and BEAS-2B cells using the following method.
Lung epithelial cells were seeded at 5×10^4 in 24-well plates. After pre-incubation with NBMI, the anti-oxidant compound, N-acetyl-L-cysteine (NAC), which was used as a positive control, or vehicle, for 3 hours the medium was removed.
Fresh media containing various particles (as below) in different concentrations was in a total volume of 0.5 ml for an additional 24 hours. The supernatants were then separated from the cells by centrifugation.
IL-8, IL-6, GM-CSF and MCP-1 were measured in the cell free fluid using the DuoSet ELISA Development kit (R&D Systems, Abingdon, UK) according to manufacturer's protocol.
Exposure to medium only served as negative control. Each experiment was performed twice with 4 replicates.
The effect of pre-incubation with 50 μM NBMI on particle-induced cytokine formation was tested at various concentrations of relevant particles.

sustained 'increase' in ascorbate over remaining 60 minutes [2] [µM]	Structure (SMILES)	immediate rebound increase in ascorbate [1] [µM]	whether recovery of ascorbate was sustained [1]	immediate 'jump' in ascorbate concentration [2] [µM]	reduction of secretion of inflammatory cytokines [3]
10.79 ± 2.45	O[C@H](CS)[C@H](O)CS (racemic) [DTT, dithiothreitol, reference compound]	5.1	not sustained	7.93 ± 6.58	–
–	CC(=O)N[C@@H](CS)C(=O)O [NAC, N-acetyl-L-cysteine, reference compound]	–	–	–	effective in reducing the secretion of inflammatory cytokines

Reference: patent US9782368B2, “Use of N,N-bis-2-mercaptoethyl isophthalamide” (EMERAMED LIMITED, priority 2014, dated 2017)
